Data published in patent publication EP4725956A1, “MODIFIED POLYPEPTIDE AND USE THEREOF IN FIELD OF ANALGESIA” (Nanjing Anji Biotechnology Co., Ltd., priority 2023, dated 2024).
Positions of bridges follow the written chain, without caps; N, C: chain ends. Non-standard residues stand in square brackets, D forms with d. Residues, ends and D or L forms follow the SMILES beside them. Bip = N[C@@H](Cc1ccc(-c2ccccc2)cc1)C(=O)O; Hyp = O=C(O)[C@@H]1C[C@@H](O)CN1; Nle = CCCC[C@H](N)C(=O)O; Orn = NCCC[C@H](N)C(=O)O; Aib = CC(C)(N)C(=O)O

How the values were obtained:
[1] = In vitro plasma stability and predicted half-life (HPLC main peak area, Example 3); format: in vitro ADME; settings: human plasma (EDTA anticoagulant), 37°C, sampled up to 24 h, predicted half-life calculated with Winolin
Procedure, shortened: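 Peptides (10 mg in 5 mL human EDTA plasma) incubated at 37°C, sampled from 0 min up to 24 h. Samples quenched with acetonitrile, centrifuged and analysed by HPLC for main peak area; in vitro half-life predicted from peak-area decline by pharmacokinetic fitting.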

[2] = system: mouse oxaliplatin-induced acute chemotherapy pain model; assay: Mouse oxaliplatin chemotherapy pain model, different doses (Example 7); format: in vivo
Experimental: Oxaliplatin was dissolved in 5% glucose solution to a concentration of 1 mg/mL. For model induction, each male C57 mouse (Hangzhou Ziyuan Experimental Animal Technology Co., Ltd.) received a single intraperitoneal injection of oxaliplatin at 10 mg/kg. Mice in the negative control or blank control group received 5% glucose solution. Approximately one week after model induction, mechanical pain thresholds of the mice were measured three times per mouse, and the average value was calculated. Mice were then randomly assigned to groups based on their pain thresholds. Drug administration was carried out according to the dosing schedule shown in Table 6, with a single dose per mouse. Mechanical pain thresholds were measured at 0.5, 1, 2, 4, 6, and 8 h post-dose. […] Table 6 Dosing Scheme for Oxaliplatin Chemotherapy Pain Model

rat CCI model = assay: Rat CCI (chronic constriction injury) model (Example 9); format: in vivo
From the text: Neuropathic pain has many types, and animal models can simulate clinical neuropathic pain. Common SD rat sciatic nerve neuropathic pain models include CCI (Chronic Constriction Injury), SNI (Spared Nerve Injury), SNL (Spinal Nerve Ligation), and CCD (using stainless steel wire through the intervertebral foramen to fix and compress the dorsal root ganglion). Among them, the CCI model is widely used to study neuropathic pain, providing a basis for further research on mechanisms and strategies for nerve injury repair (Wen Xiaojun, Medical Information, Jan. 2018, Vol. 31, No.1). In this example, the CCI model was employed.
Except for the control group, the remaining SD rats were anesthetized via intraperitoneal injection of 10% chloral hydrate saline solution at a dose of 0.3 mL per 100 g body weight, and surgical modeling was performed. The right hind limb skin was carefully incised, muscles were separated, and the sciatic nerve was ligated three times using 4-0 surgical silk, spaced 1 mm apart. Muscles and skin were sutured, and antibiotics were applied to the wound to prevent infection. […] Approximately 10 days post-surgery, plantar pain thresholds were measured three times for each rat, and the average value was calculated. Rats were randomly assigned to groups based on pain thresholds. Drug administration was performed according to Table 8, and plantar pain thresholds were measured at 2 h, 4 h, 6 h, and 8 h after administration.

With `CCCC[C@H](NC(=O)[C@@H](NC(=O)[C@H]1CSSC[C@H](NC(=O)[C@H](CO)NC(=O)CN)C(=O)N[C@@H](CO)C(=O)N[C@H]([C@H](C)O)C(=O)N2C[C@H](O)C[C@H]2C(=O)N2C[C@H](O)C[C@H]2C(=O)NC(C)(C)C(=O)N1)C(C)C)C(=O)N[C@@H](Cc1ccc(-c2ccccc2)cc1)C(=O)N[C@@H](CCCN)C(N)=O` [AJ003-36, GSCS-(D-Thr)-Hyp-Hyp-Aib-(D-Cys)-V-Nle-Bip-Orn-NH2 (3,9 disulfide bond)] (H-GSCS[dT][Hyp][Hyp][Aib][dC]V[Nle][Bip][Orn]-NH2; disulfide 3-9) as the compound, how does the half-life at 2 mg/mL [1] read?
The half-life at 2 mg/mL was 65.3 h.

And the “analgesic activity compared with the model group (mechanical pain threshold)” value ([2]; single dose, 0.5, 1, 2 and 4 h post-dose, 1 mg/kg s.c. (low dose))?
The value was “significant analgesic activity”.

What about the “analgesic activity compared with the model group (mechanical pain threshold)” value ([2]; single dose, 0.5, 1, 2 and 4 h post-dose, 2 mg/kg s.c. (AJ003; AJ003-36 medium dose)) of the same compound?
The value was “significant analgesic activity”.

What about the “analgesic activity compared with the model group (mechanical pain threshold)” value ([2]; single dose, 0.5, 1, 2 and 4 h post-dose, 3 mg/kg s.c. (high dose)) of the same compound?
Its value is “significant analgesic activity”.

What about the “analgesic activity compared with the model group (mechanical pain threshold)” value ([2]; single dose, 6 h post-dose, 1 mg/kg s.c. (low dose)) of the same compound?
The value was “significant analgesic activity”.

And the “analgesic activity compared with the model group (mechanical pain threshold)” value ([2]; single dose, 6 h post-dose, 2 mg/kg s.c. (AJ003; AJ003-36 medium dose))?
Its value is “significant analgesic activity”.

What about the “analgesic activity compared with the model group (mechanical pain threshold)” value ([2]; single dose, 6 h post-dose, 3 mg/kg s.c. (high dose)) of the same compound?
Its value is “significant analgesic activity”.

And the “analgesic activity compared with the model group (mechanical pain threshold)” value ([2]; single dose, 8 h post-dose, 1 mg/kg s.c. (low dose))?
Its value is “no significant effect”.

What about the “analgesic activity compared with the model group (mechanical pain threshold)” value ([2]; single dose, 8 h post-dose, 2 mg/kg s.c. (AJ003; AJ003-36 medium dose)) of the same compound?
Its value is “significant analgesic activity”.

What about the “analgesic activity compared with the model group (mechanical pain threshold)” value ([2]; single dose, 8 h post-dose, 3 mg/kg s.c. (high dose)) of the same compound?
The value was “significant analgesic activity”.

What about the “analgesic activity compared with the model group (mechanical pain threshold)” value (rat CCI model; Day 1 of dosing, 2 h and 4 h, 0.5 mg/kg s.c. (low dose)) of the same compound?
The value was “significant analgesic activity”.

What about the “analgesic activity compared with the model group (mechanical pain threshold)” value (rat CCI model; Day 1 of dosing, 2 h and 4 h, 1 mg/kg s.c. (AJ003; AJ003-36 medium dose)) of the same compound?
The value was “significant analgesic activity”.

What about the “analgesic activity compared with the model group (mechanical pain threshold)” value (rat CCI model; Day 1 of dosing, 2 h and 4 h, 2 mg/kg s.c. (high dose)) of the same compound?
The value was “significant analgesic activity”.

And the “analgesic activity compared with the model group (mechanical pain threshold)” value (rat CCI model; Day 1 of dosing, 6 h, 0.5 mg/kg s.c. (low dose))?
The value was “significant analgesic activity”.

What about the “analgesic activity compared with the model group (mechanical pain threshold)” value (rat CCI model; Day 1 of dosing, 6 h, 1 mg/kg s.c. (AJ003; AJ003-36 medium dose)) of the same compound?
Its value is “significant analgesic activity”.

What about the “analgesic activity compared with the model group (mechanical pain threshold)” value (rat CCI model; Day 1 of dosing, 6 h, 2 mg/kg s.c. (high dose)) of the same compound?
The value was “significant analgesic activity”.

What about the “analgesic activity compared with the model group (mechanical pain threshold)” value (rat CCI model; Day 1 of dosing, 8 h, 0.5 mg/kg s.c. (low dose)) of the same compound?
Its value is “not significantly different”.

What about the “analgesic activity compared with the model group (mechanical pain threshold)” value (rat CCI model; Day 1 of dosing, 8 h, 1 mg/kg s.c. (AJ003; AJ003-36 medium dose)) of the same compound?
The value was “significant analgesic activity”.

And the “analgesic activity compared with the model group (mechanical pain threshold)” value (rat CCI model; Day 1 of dosing, 8 h, 2 mg/kg s.c. (high dose))?
The value was “significant analgesic activity”.

What about the “analgesic activity compared with the model group (mechanical pain threshold)” value (rat CCI model; Day 4 of dosing, 2 h and 4 h, 0.5 mg/kg s.c. (low dose)) of the same compound?
The value was “significant analgesic activity”.

And the “analgesic activity compared with the model group (mechanical pain threshold)” value (rat CCI model; Day 4 of dosing, 2 h and 4 h, 1 mg/kg s.c. (AJ003; AJ003-36 medium dose))?
Its value is “significant analgesic activity”.

And the “analgesic activity compared with the model group (mechanical pain threshold)” value (rat CCI model; Day 4 of dosing, 2 h and 4 h, 2 mg/kg s.c. (high dose))?
Its value is “significant analgesic activity”.

What about the “analgesic activity compared with the model group (mechanical pain threshold)” value (rat CCI model; Day 4 of dosing, 6 h and 8 h, 0.5 mg/kg s.c. (low dose)) of the same compound?
The value was “no longer significant”.

What about the “analgesic activity compared with the model group (mechanical pain threshold)” value (rat CCI model; Day 4 of dosing, 6 h and 8 h, 1 mg/kg s.c. (AJ003; AJ003-36 medium dose)) of the same compound?
Its value is “remained significant”.

What about the “analgesic activity compared with the model group (mechanical pain threshold)” value (rat CCI model; Day 4 of dosing, 6 h and 8 h, 2 mg/kg s.c. (high dose)) of the same compound?
Its value is “remained significant”.

What about the “analgesic activity compared with the model group (mechanical pain threshold)” value (rat CCI model; Day 7 of dosing, 2 h and 4 h, 0.5 mg/kg s.c. (low dose)) of the same compound?
The value was “significant analgesic activity”.

And the “analgesic activity compared with the model group (mechanical pain threshold)” value (rat CCI model; Day 7 of dosing, 2 h and 4 h, 1 mg/kg s.c. (AJ003; AJ003-36 medium dose))?
Its value is “significant analgesic activity”.

What about the “analgesic activity compared with the model group (mechanical pain threshold)” value (rat CCI model; Day 7 of dosing, 2 h and 4 h, 2 mg/kg s.c. (high dose)) of the same compound?
Its value is “significant analgesic activity”.

And the “analgesic activity compared with the model group (mechanical pain threshold)” value (rat CCI model; Day 7 of dosing, 6 h, 0.5 mg/kg s.c. (low dose))?
Its value is “still significant”.

What about the “analgesic activity compared with the model group (mechanical pain threshold)” value (rat CCI model; Day 7 of dosing, 6 h, 1 mg/kg s.c. (AJ003; AJ003-36 medium dose)) of the same compound?
Its value is “still significant”.

And the “analgesic activity compared with the model group (mechanical pain threshold)” value (rat CCI model; Day 7 of dosing, 6 h, 2 mg/kg s.c. (high dose))?
Its value is “still significant”.

And the “analgesic activity compared with the model group (mechanical pain threshold)” value (rat CCI model; Day 7 of dosing, 8 h, 0.5 mg/kg s.c. (low dose))?
Its value is “not significant”.

What about the “analgesic activity compared with the model group (mechanical pain threshold)” value (rat CCI model; Day 7 of dosing, 8 h, 1 mg/kg s.c. (AJ003; AJ003-36 medium dose)) of the same compound?
Its value is “remained significant”.

What about the “analgesic activity compared with the model group (mechanical pain threshold)” value (rat CCI model; Day 7 of dosing, 8 h, 2 mg/kg s.c. (high dose)) of the same compound?
Its value is “remained significant”.

And the “analgesic activity compared with the model group (mechanical pain threshold)” value (rat CCI model; Day 10 of dosing, 2 h and 4 h, 0.5 mg/kg s.c. (low dose))?
The value was “significant analgesic activity”.

And the “analgesic activity compared with the model group (mechanical pain threshold)” value (rat CCI model; Day 10 of dosing, 2 h and 4 h, 1 mg/kg s.c. (AJ003; AJ003-36 medium dose))?
Its value is “significant analgesic activity”.

What about the “analgesic activity compared with the model group (mechanical pain threshold)” value (rat CCI model; Day 10 of dosing, 2 h and 4 h, 2 mg/kg s.c. (high dose)) of the same compound?
Its value is “significant analgesic activity”.

And the “analgesic activity compared with the model group (mechanical pain threshold)” value (rat CCI model; Day 10 of dosing, 6 h, 0.5 mg/kg s.c. (low dose))?
The value was “remained significant”.

What about the “analgesic activity compared with the model group (mechanical pain threshold)” value (rat CCI model; Day 10 of dosing, 6 h, 1 mg/kg s.c. (AJ003; AJ003-36 medium dose)) of the same compound?
Its value is “remained significant”.

What about the “analgesic activity compared with the model group (mechanical pain threshold)” value (rat CCI model; Day 10 of dosing, 6 h, 2 mg/kg s.c. (high dose)) of the same compound?
Its value is “remained significant”.

What about the “analgesic activity compared with the model group (mechanical pain threshold)” value (rat CCI model; Day 10 of dosing, 8 h, 0.5 mg/kg s.c. (low dose)) of the same compound?
Its value is “not significant”.

And the “analgesic activity compared with the model group (mechanical pain threshold)” value (rat CCI model; Day 10 of dosing, 8 h, 1 mg/kg s.c. (AJ003; AJ003-36 medium dose))?
Its value is “remained significant”.

And the “analgesic activity compared with the model group (mechanical pain threshold)” value (rat CCI model; Day 10 of dosing, 8 h, 2 mg/kg s.c. (high dose))?
The value was “remained significant”.

And the “analgesic activity compared with the model group (mechanical pain threshold)” value (rat CCI model; Day 14 of dosing, 2 h and 4 h, 0.5 mg/kg s.c. (low dose))?
Its value is “significant analgesic activity”.

And the “analgesic activity compared with the model group (mechanical pain threshold)” value (rat CCI model; Day 14 of dosing, 2 h and 4 h, 1 mg/kg s.c. (AJ003; AJ003-36 medium dose))?
Its value is “significant analgesic activity”.

And the “analgesic activity compared with the model group (mechanical pain threshold)” value (rat CCI model; Day 14 of dosing, 2 h and 4 h, 2 mg/kg s.c. (high dose))?
The value was “significant analgesic activity”.

And the “analgesic activity compared with the model group (mechanical pain threshold)” value (rat CCI model; Day 14 of dosing, 6 h, 0.5 mg/kg s.c. (low dose))?
Its value is “remained significant”.

And the “analgesic activity compared with the model group (mechanical pain threshold)” value (rat CCI model; Day 14 of dosing, 6 h, 1 mg/kg s.c. (AJ003; AJ003-36 medium dose))?
Its value is “remained significant”.

And the “analgesic activity compared with the model group (mechanical pain threshold)” value (rat CCI model; Day 14 of dosing, 6 h, 2 mg/kg s.c. (high dose))?
Its value is “remained significant”.

And the “analgesic activity compared with the model group (mechanical pain threshold)” value (rat CCI model; Day 14 of dosing, 8 h, 0.5 mg/kg s.c. (low dose))?
Its value is “not significant”.

And the “analgesic activity compared with the model group (mechanical pain threshold)” value (rat CCI model; Day 14 of dosing, 8 h, 1 mg/kg s.c. (AJ003; AJ003-36 medium dose))?
The value was “remained significant”.

And the “analgesic activity compared with the model group (mechanical pain threshold)” value (rat CCI model; Day 14 of dosing, 8 h, 2 mg/kg s.c. (high dose))?
Its value is “remained significant”.
